Four compounds from patent publication US12252524B2, “GIP/GLP1 co-agonist compounds” (Eli Lilly and Company, priority 2018, dated 2025) can be followed below.

Numbered stars: 1 amine (or outer) side, 2 acyl side, 3 side chain; on linkers, the order of the positions; unused ones are H or OH. Square brackets hold non-standard residues; d marks the D form. Side chains are listed from the residue outwards. Peptide text beside a SMILES is read from it. * marks the point of attachment. C20 diacid = O=C(O)CCCCCCCCCCCCCCCCCCC(=O)*; C18 diacid = O=C(O)CCCCCCCCCCCCCCCCC(=O)*; αMePhe(2-F) = C[C@](N)(Cc1ccccc1F)C(=O)O; γGlu = O=C(O)[C@H](CCC(=O)[*:2])N[*:1]; αMeF = C[C@](N)(Cc1ccccc1)C(=O)O; 4Pal = N[C@@H](Cc1ccncc1)C(=O)O; αMeL = CC(C)C[C@](C)(N)C(=O)O; AEEA = NCCOCCOCC(=O)O; Aib = CC(C)(N)C(=O)O Bounds are passed on as bounds.

The target of experiment [1] is T1, gastric inhibitory peptide receptor (GIPR) (Homo sapiens, UniProt P48546).
T1 sequence (P48546 22-466): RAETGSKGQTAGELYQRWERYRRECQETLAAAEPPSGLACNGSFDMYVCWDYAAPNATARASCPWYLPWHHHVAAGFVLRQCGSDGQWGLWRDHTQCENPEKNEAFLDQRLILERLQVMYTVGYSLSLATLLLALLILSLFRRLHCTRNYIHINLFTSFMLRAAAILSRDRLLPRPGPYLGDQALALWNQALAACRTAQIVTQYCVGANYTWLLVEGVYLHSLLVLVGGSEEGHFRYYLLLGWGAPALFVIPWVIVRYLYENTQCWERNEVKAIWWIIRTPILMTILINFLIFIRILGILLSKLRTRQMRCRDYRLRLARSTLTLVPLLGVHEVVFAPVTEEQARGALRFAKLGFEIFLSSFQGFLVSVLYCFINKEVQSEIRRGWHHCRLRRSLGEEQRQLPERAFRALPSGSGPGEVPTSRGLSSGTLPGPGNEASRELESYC
Briefly: cAMP pharmacological functional assay in presence of casein, hGIPR. It is filed as cell-based. The conditions noted are these: HEK293 cells expressing hGIPR, 0.1% Casein, geometric mean; read-out: hGIPR cAMP Rel EC50 nM (SEM, n).

The next experiment deals with human GLP-1R (Homo sapiens, UniProt P43220). Briefly: [125I]-GLP-1 binding (SPA), human GLP-1 receptor. Particulars: read-out: hGLP1R Ki, (nM) (SEM, n). More on the design: expressed in transfected cells; crude membranes. Put shortly:
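Crude-membrane binding assay; one membrane prep included 1 mM MgCl2 and 25 units/ml DNAse I during lysis. Assay buffer at pH 7.4 contains 0.1% (w/v) bacitracin and 0.003% (w/v) TWEEN-20. Ki is reported as geometric mean.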

For experiment [2], the target named is human GLP-1 receptor (GLP-1R) (Homo sapiens, UniProt P43220). Briefly: cAMP pharmacological functional assay in presence of casein, hGLP-1R. It is filed as cell-based. Particulars: HEK293 cells expressing hGLP-1R, 0.1% Casein, geometric mean; read-out: hGLP1R cAMP Rel EC50 nM (SEM, n).
The next experiment deals with T2, human Gcg receptor (Homo sapiens, UniProt P47871).
T2 construct: expressed in transfected cells; crude membranes
Put plainly: [125I]-Glucagon binding (SPA), human Gcg receptor. The conditions noted are these: read-out: hGLcgR Ki, nM (SEM, n). Put shortly:
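Cell pellets were lysed in hypotonic Tris buffer, pH 7.5, homogenized, and spun at low then high speed to give crude membranes. Ki was derived from the fitted IC50.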

A further experiment has as its target T3, human GIP receptor (Homo sapiens, UniProt P48546).
T3 construct: expressed in transfected cells; crude membranes
T3 sequence (P48546 22-466): T1 sequence (P48546 22-466)
Briefly: [125I]-GIP binding (SPA), human GIP receptor. Particulars: read-out: hGIPR Ki, nM (SEM, n).

T2 sequence (P47871 26-477): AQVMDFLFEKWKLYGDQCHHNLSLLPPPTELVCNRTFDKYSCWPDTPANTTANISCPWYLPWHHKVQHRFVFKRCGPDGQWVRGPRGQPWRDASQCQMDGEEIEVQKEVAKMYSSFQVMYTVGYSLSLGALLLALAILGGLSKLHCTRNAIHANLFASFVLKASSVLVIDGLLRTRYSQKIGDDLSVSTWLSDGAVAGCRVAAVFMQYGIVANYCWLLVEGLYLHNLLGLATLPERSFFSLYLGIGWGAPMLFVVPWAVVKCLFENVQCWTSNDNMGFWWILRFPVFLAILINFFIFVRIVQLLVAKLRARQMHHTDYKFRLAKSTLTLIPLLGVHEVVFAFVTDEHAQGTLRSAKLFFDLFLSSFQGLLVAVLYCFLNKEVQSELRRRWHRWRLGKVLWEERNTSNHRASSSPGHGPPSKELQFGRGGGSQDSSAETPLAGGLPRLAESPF
human GLP-1 receptor (GLP-1R), sequence (P43220 24-463): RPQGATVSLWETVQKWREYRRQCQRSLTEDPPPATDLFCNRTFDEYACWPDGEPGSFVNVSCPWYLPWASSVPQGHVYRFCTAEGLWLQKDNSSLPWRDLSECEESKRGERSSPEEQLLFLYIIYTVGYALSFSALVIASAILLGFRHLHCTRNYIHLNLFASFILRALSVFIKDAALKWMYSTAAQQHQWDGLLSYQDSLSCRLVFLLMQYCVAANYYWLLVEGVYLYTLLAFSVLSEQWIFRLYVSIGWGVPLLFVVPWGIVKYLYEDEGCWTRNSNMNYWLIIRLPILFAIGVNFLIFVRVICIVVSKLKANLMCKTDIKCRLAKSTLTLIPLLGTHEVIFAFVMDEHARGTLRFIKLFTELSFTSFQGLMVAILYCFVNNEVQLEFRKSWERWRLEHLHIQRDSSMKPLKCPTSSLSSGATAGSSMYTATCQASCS
human GLP-1R, sequence (P43220 24-463): as above

For orientation: EC50 means the concentration at which the effect is half-maximal. What is called Ki is a measure of affinity in units of concentration, obtained from inhibition or displacement. Consider `CC[C@H](C)[C@H](NC(=O)[C@H](CC(C)C)NC(=O)[C@H](Cc1ccc(O)cc1)NC(=O)[C@H](CCC(=O)O)NC(=O)[C@@H](NC(=O)[C@H](Cc1ccccc1)NC(=O)[C@H](C)NC(=O)C(C)(C)NC(=O)[C@H](CCC(N)=O)NC(=O)[C@H](C)NC(=O)[C@H](CCCCNC(=O)COCCOCCNC(=O)COCCOCCNC(=O)CC[C@H](NC(=O)CCCCCCCCCCCCCCCCCCC(=O)O)C(=O)O)NC(=O)[C@H](CCCCN)NC(=O)[C@H](CC(=O)O)NC(=O)[C@H](CC(C)C)NC(=O)[C@H](CC(C)C)NC(=O)[C@@H](NC(=O)[C@H](CO)NC(=O)[C@@H](NC(=O)[C@H](CC(=O)O)NC(=O)[C@H](CO)NC(=O)[C@@H](NC(=O)[C@](C)(Cc1ccccc1)NC(=O)[C@@H](NC(=O)CNC(=O)[C@H](CCC(=O)O)NC(=O)C(C)(C)NC(=O)[C@@H](N)Cc1ccc(O)cc1)[C@@H](C)O)[C@@H](C)O)[C@@H](C)CC)[C@@H](C)CC)[C@@H](C)CC)C(=O)N[C@@H](CCC(=O)O)C(=O)NCC(=O)NCC(=O)N1CCC[C@H]1C(=O)N[C@@H](CO)C(=O)N[C@@H](CO)C(=O)NCC(=O)N[C@@H](C)C(=O)N1CCC[C@H]1C(=O)N1CCC[C@H]1C(=O)N1CCC[C@H]1C(=O)N[C@@H](CO)C(N)=O` [Example 127] (H-Y[Aib]EGT[αMeF]TSDISILLDKK([AEEA-AEEA-γGlu-C20 diacid])AQ[Aib]AFIEYLIEGGPSSGAPPPS-NH2; N-terminus assumed), for which the EC50 in experiment [1] was 0.158 nM; in experiment [2] it was 0.145 nM. Besides, the Ki at human GLP-1R came to 1.86 nM; on human Gcg receptor it was 43.6 nM; on human GIP receptor, 0.126 nM.
The like results for `CC[C@H](C)[C@H](NC(=O)[C@H](CC(C)C)NC(=O)[C@H](Cc1ccc(O)cc1)NC(=O)[C@@H](CCC(=O)O)NC(=O)[C@@H](NC(=O)[C@H](Cc1ccccc1)NC(=O)[C@H](C)NC(=O)C(C)(C)NC(=O)[C@H](CCC(N)=O)NC(=O)[C@H](C)NC(=O)[C@H](CCCCNC(=O)COCCOCCNC(=O)COCCOCCNC(=O)CC[C@H](NC(=O)CCCCCCCCCCCCCCCCCCC(=O)O)C(=O)O)NC(=O)[C@H](CCCCN)NC(=O)[C@H](CC(=O)O)NC(=O)[C@H](CC(C)C)NC(=O)[C@H](CC(C)C)NC(=O)[C@@H](NC(=O)[C@H](CO)NC(=O)[C@H](Cc1ccc(O)cc1)NC(=O)[C@H](CC(=O)O)NC(=O)[C@H](CO)NC(=O)[C@@H](NC(=O)[C@H](Cc1ccccc1)NC(=O)[C@@H](NC(=O)CNC(=O)[C@H](CCC(=O)O)NC(=O)C(C)(C)NC(=O)[C@@H](N)Cc1ccc(O)cc1)[C@@H](C)O)[C@@H](C)O)[C@@H](C)CC)[C@@H](C)CC)C(=O)N[C@@H](CCC(=O)O)C(=O)NCC(=O)NCC(=O)N1CCC[C@H]1C(=O)N[C@@H](CO)C(=O)N[C@@H](CO)C(=O)NCC(=O)N[C@@H](C)C(=O)N1CCC[C@H]1C(=O)N1CCC[C@H]1C(=O)N1CCC[C@H]1C(=O)N[C@@H](CO)C(N)=O` [Example 84] were, in that order, 0.0915 nM, 0.374 nM, 10.2 nM, more than 1100 nM and 0.143 nM.
In the same order, the values of `CC[C@H](C)[C@H](NC(=O)[C@H](CCCCNC(=O)COCCOCCNC(=O)COCCOCCNC(=O)CC[C@H](NC(=O)CCCCCCCCCCCCCCCCCCC(=O)O)C(=O)O)NC(=O)[C@H](CC(=O)O)NC(=O)[C@H](CC(C)C)NC(=O)[C@H](CC(C)C)NC(=O)[C@@H](NC(=O)[C@H](CO)NC(=O)[C@H](Cc1ccc(O)cc1)NC(=O)[C@H](CC(=O)O)NC(=O)[C@H](CO)NC(=O)[C@@H](NC(=O)[C@H](Cc1ccccc1)NC(=O)[C@@H](NC(=O)CNC(=O)[C@H](CCC(=O)O)NC(=O)C(C)(C)NC(=O)[C@@H](N)Cc1ccc(O)cc1)[C@@H](C)O)[C@@H](C)O)[C@@H](C)CC)C(=O)N[C@@H](C)C(=O)N[C@@H](CCC(N)=O)C(=O)NC(C)(C)C(=O)N[C@@H](C)C(=O)N[C@@H](Cc1ccccc1)C(=O)N[C@H](C(=O)N[C@@H](CCC(=O)O)C(=O)N[C@@H](Cc1ccc(O)cc1)C(=O)N[C@@H](CC(C)C)C(=O)N[C@H](C(=O)N[C@@H](CCC(=O)O)C(=O)NCC(=O)NCC(=O)N1CCC[C@H]1C(=O)N[C@@H](CO)C(=O)N[C@@H](CO)C(=O)NCC(=O)N[C@@H](C)C(=O)N1CCC[C@H]1C(=O)N1CCC[C@H]1C(=O)N1CCC[C@H]1C(=O)N[C@@H](CO)C(N)=O)[C@@H](C)CC)[C@@H](C)CC` [Example 29] (H-Y[Aib]EGTFTSDYSILLDK([AEEA-AEEA-γGlu-C20 diacid])IAQ[Aib]AFIEYLIEGGPSSGAPPPS-NH2) are 0.32 nM, 0.999 nM, 8 nM, 132 nM and 0.377 nM.
In the same order, the values of `CC[C@H](C)[C@H](NC(=O)[C@H](CC(C)C)NC(=O)[C@H](Cc1ccc(O)cc1)NC(=O)[C@@H](CCC(=O)O)NC(=O)[C@@H](NC(=O)[C@H](Cc1ccccc1)NC(=O)[C@H](CCC(=O)O)NC(=O)C(C)(C)NC(=O)[C@H](CCC(N)=O)NC(=O)[C@H](C)NC(=O)[C@H](CCCCNC(=O)COCCOCCNC(=O)COCCOCCNC(=O)CCCCCCCCCCCCCCCCC(=O)O)NC(=O)[C@H](CCC(=O)O)NC(=O)[C@H](CC(=O)O)NC(=O)[C@H](CC(C)C)NC(=O)[C@](C)(CC(C)C)NC(=O)[C@@H](NC(=O)[C@H](CO)NC(=O)[C@H](Cc1ccncc1)NC(=O)[C@H](CC(=O)O)NC(=O)[C@H](CO)NC(=O)[C@@H](NC(=O)[C@](C)(Cc1ccccc1F)NC(=O)[C@@H](NC(=O)CNC(=O)[C@H](CCC(=O)O)NC(=O)C(C)(C)NC(=O)[C@@H](N)Cc1ccc(O)cc1)[C@@H](C)O)[C@@H](C)O)[C@@H](C)CC)[C@@H](C)CC)C(=O)N[C@@H](CCC(=O)O)C(=O)NCC(=O)NCC(=O)N1CCC[C@H]1C(=O)N[C@@H](CO)C(=O)N[C@@H](CO)C(=O)NCC(=O)N[C@@H](C)C(=O)N1CCC[C@H]1C(=O)N1CCC[C@H]1C(=O)N1CCC[C@H]1C(=O)N[C@@H](CO)C(N)=O` [Example 205] (H-Y[Aib]EGT[αMePhe(2-F)]TSD[4Pal]SI[αMeL]LDEK([AEEA-AEEA-C18 diacid])AQ[Aib]EFI[dE]YLIEGGPSSGAPPPS-NH2; N-terminus assumed) are 0.0281 nM, 0.0261 nM, 3.05 nM, 438 nM and 0.0367 nM.
